Measured values as given in patent US20040253243A1, “Aptamer therapeutics useful in ocular pharmacotherapy” (priority 2003, published 2004).
Like-named read-outs stand apart in the source and are kept apart here.

What was measured:
PDGF [1] = molecular target: T1, PDGF (Homo sapiens, UniProt P01127); details: iv
[2] = rabbit, in vivo
Procedure: Studies were performed in the Dutch-belted rabbit model using […]. Aptamers were administered at a dose level of 1.0 mg/eye, bilaterally via […] intravitreal injection. Samples from the aqueous humor, vitreous humor and plasma were taken before administration of the aptamer and a 0.25 h, 6 h, 24 h, 72 h, 7d, […], and 21d. FIGS. 22A, 22B and 22C show the vitreous humor and/or plasma concentration of each aptamer through 25 days post administration.
The results shown in FIG. 22A were obtained using noncompartmental (NCA) analysis. The volume of rabbit vitreous humor was approximately 1.0-1.5 ml.

[3] = Animal models for glomerulonephritis, restenosis, cancer and pulmonary hypertension; format: in vivo
PDGF [4] = molecular target: T1, PDGF; experiment: Cellular IC50 of anti-PDGF aptamer; format: cell-based
rat PDGF = rat PDGF (Rattus norvegicus, UniProt Q05028); experiment: Rat PDGF binding; details: FIG. 14A
[5] = test system: retinal pigmented epithelial (RPE) cells; experiment: RPE cell migration with PDGF; format: cell-based; details: 100 ng/ml PDGF
Description: The graphs presented in FIG. 15E and 15F show the increasing effect of PDGF concentration on RPE cell migration.

PDGF AA isoform = PDGF AA isoform (Homo sapiens, UniProt P04085); experiment: PDGF AA isoform binding; details: FIG. 13A
PDGF AB and BB = experiment: PDGF binding (Kd); design: species or system human
[6] = mouse, in vivo; for AUC / MRT / tmax / t½: 10 mg/kg
[7] = test system: PDGF-induced 3T3 cell proliferation; experiment: PDGF-induced 3T3 cell proliferation; format: cell-based; details: compared with anti-PDGF antibody (Upstate/Cell Signaling Solutions)
[8] = rabbit, in vivo; remark: listed apart in the source
[9] = in vivo, iv

Chain of PDGF AB and BB (P01127 82-190 limits assumed): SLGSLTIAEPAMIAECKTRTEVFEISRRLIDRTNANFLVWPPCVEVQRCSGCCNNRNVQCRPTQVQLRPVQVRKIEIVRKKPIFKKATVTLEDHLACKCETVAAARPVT
T1 sequence (P01127 82-190 limits assumed): as above
Chain of rat PDGF (Q05028 74-182 limits assumed): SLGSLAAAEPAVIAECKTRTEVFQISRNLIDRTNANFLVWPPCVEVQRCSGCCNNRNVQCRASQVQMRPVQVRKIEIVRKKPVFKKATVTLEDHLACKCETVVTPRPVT

For “5′-[PEG40K]-NH2-dCdAdGdGdCfUdAfCmG-PEG-dCdGTdAmGdAmGdCdAfUfCmA-PEG-TdGdATfCfCfUmG-3T-3′ [ARC127]”, the “duration of measurable activity in vivo” value (PDGF [1]) was 48 h, the Cl [2] was 0.29 mL?d^−1 and the Cmax [2] was about 100 µM. For the same substance, the Vss [2] was 1.42 mL, the “half life in the vitreous humor” value [2] was 3.5 days and the t1/2 [2] was 3.87 days. The tmax [2] was 15 min, the “efficacy in animal models” value [3] was “efficacy in the animal models for glomerulonephritis, restenosis, cancer and pulmonary hypertension” and the IC50 (PDGF [4]) was 2 nM. The “affinity for human and rat PDGFs” value (rat PDGF) was “equivalent affinity”, the “blocking of RPE cell migration” value [5] was “specifically blocks migration of retinal pigmented epithelial (RPE) cells” and the “recognition of AA isoform of PDGF” value (PDGF AA isoform) was “not the AA isoform alone”. The “recognition of BB and AB isoforms of PDGF” value (PDGF AB and BB; FIGS. 13A and 13B) was “recognizes the BB and AB isoforms of PDGF”, the Kd (PDGF AB and BB; anti-PDGF aptamer, isoform not stated, read-out: dissociation constant (Kd)) was 0.1 nM and the Kd (PDGF AB and BB; read-out: Kd, PDGF AB and BB) was 0.1 nM. For the same substance, the bioavailability ([6]; ip) was 62.5%, the “AUC” value ([6]; ip) was 143.6055 µM·h and the “MRT” value ([6]; ip) was 11.23 h. For the same substance, the “tmax” value ([6]; ip) was 8 h, the “t½” value ([6]; ip) was 7.86 h and the “AUC” value ([6]; iv) was 229.6868 µM·h. For the same substance, the “MRT” value ([6]; iv) was 6.57 h, the “tmax” value ([6]; iv) was 2 h and the “t½” value ([6]; iv) was 8.60 h. For the same substance, the bioavailability ([6]; sc) was 24.0%, the “AUC” value ([6]; sc) was 55.0309 µM·h and the “MRT” value ([6]; sc) was 16.63 h. The “tmax” value ([6]; sc) was 8 h, the “t½” value ([6]; sc) was 9.18 h and the “ability to block PDGF-induced 3T3 cell proliferation” value [7] was “comparable to the ability of an anti-PDGF antibody”. For the same substance, the “half life (intravitreal)” value [8] was 3.87 days and the systemic half life [9] was 6 to 12 h.
